Measurements reported in patent publication US20130316963A1, “INNATE DEFENCE REGULATORY PEPTIDE COMPOSITIONS FOR TREATMENT OF ARTHRITIS” (UNIVERSITY OF MANITOBA, priority 2010, published 2013).

What was measured:
Format in all cases: cell-based
human FLS cells [1] = assay: MMP-3 production in tissue culture supernatants of cytokine-stimulated human FLS cells (ELISA); conditions: 24 hr
Method: Synovial tissues were obtained from patients with OA in accordance to a protocol by the Institutional Review Board at the University of Manitoba. FLS cells were isolated from the synovial tissues following the procedure taught by Kammouni et al. (2007, Regulation of apoptosis in fibroblast-like synoviocytes by the hypoxia-induced Bcl-2 family member Bcl-2/adenovirus E1B 19-kd protein-interacting protein 3. Arthritis Rheum. 56:2854-2863). Briefly, the tissues were digested with 1 mg/ml collagenase and 0.05 mg/ml hyaluronidase (both obtained from Sigma-Aldrich Co., Oakville, ON, Canada) in Hanks' balanced salt solution (Gibco; Invitrogen Canada Inc., Burlington, ON, Canada) for 1-2 hours at 37° C. Cells were washed and cultured in DMEM media (Gibco) supplemented with sodium pyruvate and non-essential amino acids (referred to as complete DMEM media henceforth), containing 10% (v/v) fetal bovine serum (FBS) in a humidified incubator at 37° C. and 10% CO2. Isolated human FLS cells (ex-vivo) were seeded at 2×10^4 cells/ml, either 0.5 ml per well in 48-well tissue culture plate, or 3 ml per well in 6-well tissue culture plate as required and cultured in complete DMEM media containing 10% (v/v) FBS overnight. The following day the culture media was changed to complete DMEM containing 1% (v/v) FBS before the addition of the various stimulants. The FLS cells were not used beyond passage five. […] Cellular cytotoxicity was evaluated by monitoring the release of lactate dehydrogenase (LDH) employing a colorimetric detection kit (Roche Diagnostics, Laval, QC, Canada).
Tissue culture supernatants were harvested after stimulation of human FLS cells with various cytokines (as indicated) with and without IDR peptides after 24 hr. […] Production of MMP-3 in the tissue culture supernatants was monitored using Quantikine® human MMP-3 (total) ELISA kit (Quantikine is a registered trademark of R&D Systems, Inc. Minneapolis, Minn., USA) as per the manufacturer's instructions. Production of pro-inflammatory cytokines IL-1β, IL-6, IL-10, TNF, IL-12p70 and chemokines IL-8, RANTES, MIG, MCP-1, IP-10 in the tissue culture supernatants was determined using preconfigured multiplex BD Cytometric Bead Array (CBA) human inflammation and chemokine kits respectively, employing the FACS Calibur flow cytometer (BD Biosciences, Mississauga, ON, Canada) as per the manufacture's instructions. The concentration of the cytokines or chemokines in the tissue culture supernatants was evaluated by establishing a standard curve with serial dilutions of the recombinant human cytokines or chemokines as required. […]

NF-κB = assay: Secreted NF-κB luciferase reporter assay in rabbit synoviocyte HIG-82 cells; conditions: IL-1β 10 ng/ml, IDR-1002 100 μg/ml, 6 hr, FIG. 3
Method: Rabbit synoviocyte HIG-82 cells were transiently transfected with pNFκB-MetLuc2-Reporter Vector (Clontech laboratories Inc., Mountain View, Calif., USA) or the provided control vector as per the manufacturer's instructions. Various stimulants were added to the transfected cells in culture media containing 1% (v/v) FBS. The cells were stimulated with recombinant human IL-1β in the presence and absence of IDR-1002 for 6 hr. The peptide was added either 45 min prior to, or at the time of cytokine stimulation. The activation of NF-κB was monitored by employing the Ready-To-Glow Secreted NF-κB Luciferase Reporter Assay (Clontech) as per the manufacturer's instructions.
Transcription factor NF-κB is central to the destructive effects associated with the escalation and sustenance of inflammatory responses pivotal in chronic inflammatory diseases including arthritis. Quantitative proteomics evaluation using iTRAQ® labelling pointed to the possibility that the peptide IDR-1002 altered IL-1β-induced NF-κB activation. Therefore, this study further evaluated the impact of IDR-1002 on IL-1β-induced direct activation of NF-κB in synovial fibroblasts. […] The activation of NF-κB was monitored by employing the Ready-To-Glow Secreted NF-κB Luciferase Reporter Assay (Clontech) as per the manufacturer's instructions.

human FLS cells [2] = assay: Transcriptional responses for IL-IRA and SIGIRR in human FLS cells (quantitative real-time PCR); conditions: FIG. 6; for IL-IRA transcription / SIGIRR transcription: in comparison to IL-1β alone, 2 hrs
Method: Additionally, transcriptional responses for IL-IRA and SIGIRR in these cell cultures were evaluated by quantitative real-time PCR after 2 hrs.

## VQRWLIVWRIRK (IDR-1002 peptide)
Human FLS cells [1]; IDR-1002 100 μg/ml for 45 min prior to IL-1β 10 ng/ml, FIG. 2A
  suppression of IL-1β-induced MMP-3: 80%
Human FLS cells [1]; IL-1β 10 ng/ml, peptide added at time of stimulation, IDR-1002 100 μg/ml, IDR-1 200 μg/ml, FIG. 1A
  suppression of IL-1β-induced MMP-3 production: 70±8%
Human FLS cells [1]; TNF-α+IL-1β 10 ng/ml each, IDR-1002 100 μg/ml, FIG. 1C
  suppression of MMP-3 production induced by cytomix (TNF-α+IL-1β): 56±10%
Human FLS cells [1]; no cytokine, vs un-stimulated control FLS cells, IDR-1002 100 μg/ml
  MMP-3 production induced by peptide by itself: did not induce MMP-3 production above the background amount
NF-κB
  suppression of IL-1β-induced activation of NF-κB: greater than 70%
Human FLS cells [2]; IDR-1002 alone
  IL-IRA transcription: significantly increased
  SIGIRR transcription: significantly increased
Human FLS cells [2]; IDR-1002 plus IL-1β
  IL-IRA transcription: significantly increased
  SIGIRR transcription: significantly increased
Human FLS cells [2]; human FLS
  SIGIRR gene expression induced by IDR-1002 relative to cells stimulated with IL-1β: more than 9 fold
